Patent publication US8846669B2, “Oxazolidinone derivative and medical composition containing same” (Legochem Biosciences, Inc., priority 2011, dated 2014)
In brackets after ≈: the same amount, converted by molar mass.

Columns and labels:
Assay in all cases: In vitro antibacterial activity, broth microdilution MIC90
Format in all cases: cell-based
[1] = system: Vancomycin Resistant Enterococcus faecalis
Protocol: (§1) MIC90 was measured by broth microdilution method based on CLSI standards [reference: Clinical and Laboratory Standards Institute Document. (2000) Methods for Dilution Antimicrobial Susceptibility Test for Bacteria that Grow Aerobically-Fifth Edition: M7-A5. CLSI, Villanova, Pa.].
(§2) Activities of 12 strains including Staphylococcus aureus, Methicillin Resistant Staphylococcus aureus, Staphylococcus epidermidis, Methicillin Resistant Staphylococcus epidermidis, Enterococcus faecalis, Vancomycin Resistant Enterococcus faecalis, Linezolid and Vancomycin Resistant Enterococcus faecalis, Enterococcus faecium, Vancomycin Resistant Enterococcus faecium, Linezolid and Vancomycin Resistant Enterococcus faecium, and Moraxella catarrhalis, were measured, and results are shown in Table 1 below.
(§3) The final concentration of test material in the antibacterial test was from 0.063 μg/mL (minimum) to 128 μg/mL (maximum), and the final concentration of DMSO used as an excipient was 2.5% (V/V). Linezolid represented by Formula B below (manufactured by Pfizer) was used as a control and bacterial activity thereof was compared with those of the test materials.

Moraxella catarrhalis = system: Moraxella catarrhalis
Protocol: as §1, §2, §3

[2] = system: Methicillin Resistant Staphylococcus aureus
Protocol: as §1, §2, §3

[3] = system: Vancomycin Resistant Enterococcus faecium
Protocol: as §1, §2, §3

[4] = system: Staphylococcus epidermidis
Protocol: as §1, §2, §3

Enterococcus faecalis = system: Enterococcus faecalis
Protocol: as §1, §2, §3

Staphylococcus aureus = system: Staphylococcus aureus
Protocol: as §1, §2, §3

[5] = system: Linezolid and Vancomycin Resistant Enterococcus faecalis
Protocol: as §1, §2, §3

[6] = system: Methicillin Resistant Staphylococcus epidermidis
Protocol: as §1, §2, §3

Enterococcus faecium = system: Enterococcus faecium
Protocol: as §1, §2, §3

[7] = system: Linezolid and Vancomycin Resistant Enterococcus faecium (strain 11)
Protocol: as §1, §2, §3

[8] = system: Linezolid and Vancomycin Resistant Enterococcus faecium (strain 10)
Protocol: as §1, §2, §3

Row | SMILES | MIC90 ([1]; Enterococcus faecalis) | MIC90 (Moraxella catarrhalis; Moraxella catarrhalis) | MIC90 ([2]; Staphylococcus aureus) | MIC90 ([3]; Enterococcus faecium) | MIC90 ([4]; Staphylococcus epidermidis) | MIC90 (Enterococcus faecalis; Enterococcus faecalis) | MIC90 (Staphylococcus aureus; Staphylococcus aureus) | MIC90 ([5]; Enterococcus faecalis) | MIC90 ([1]; strain 6, E. faecalis VanA) | MIC90 (Moraxella catarrhalis; strain 12, M. catarrhalis) | MIC90 ([2]; strain 2, S. aureus MR) | MIC90 ([3]; strain 9, E. faecium VanA) | MIC90 ([4]; strain 3, S. epidermidis) | MIC90 (Enterococcus faecalis; strain 5, E. faecalis) | MIC90 (Staphylococcus aureus; strain 1, S. aureus) | MIC90 ([5]; strain 7, E. faecalis VanA LR) | MIC90 ([6]; strain 4, S. epidermidis MR) | MIC90 (Enterococcus faecium; strain 8, E. faecium) | MIC90 ([7]; strain 11, E. faecium VanA LR) | MIC90 ([8]; strain 10, E. faecium VanA LR) | also measured
1 | CNC(=O)N1CCN(c2ccc(-c3ccc(N4C[C@H](Cn5ccnn5)OC4=O)cc3F)cn2)C=N1 [Compound 34] | 0.5 µg/mL (≈ 1.04 µM) | 2 µg/mL (≈ 4.17 µM) | 0.5 µg/mL (≈ 1.04 µM) | 0.5 µg/mL (≈ 1.04 µM) | 0.5 µg/mL (≈ 1.04 µM) | 0.5 µg/mL (≈ 1.04 µM) | 0.25 µg/mL (≈ 0.521 µM) | 2 µg/mL (≈ 4.17 µM) |  |  |  |  |  |  |  |  |  |  |  |  | MIC90 ([6]; Staphylococcus epidermidis): 1 µg/mL (≈ 2.09 µM); MIC90 (Enterococcus faecium; Enterococcus faecium): 0.25 µg/mL (≈ 0.521 µM); MIC90 ([7]; Enterococcus faecium): 4 µg/mL (≈ 8.34 µM); MIC90 ([8]; Enterococcus faecium): 2 µg/mL (≈ 4.17 µM)
2 | O=C(C(O)CO)N1CCN(c2ccc(-c3ccc(N4C[C@H](Cn5ccnn5)OC4=O)cc3F)cn2)C=N1 (stereo partly drawn) [Compound 37] | 1 µg/mL (≈ 1.96 µM) | 8 µg/mL (≈ 15.7 µM) | 1 µg/mL (≈ 1.96 µM) | 1 µg/mL (≈ 1.96 µM) | 1 µg/mL (≈ 1.96 µM) | 1 µg/mL (≈ 1.96 µM) | 0.5 µg/mL (≈ 0.979 µM) | 8 µg/mL (≈ 15.7 µM) |  |  |  |  |  |  |  |  |  |  |  |  | MIC90 ([6]; Staphylococcus epidermidis): 2 µg/mL (≈ 3.92 µM); MIC90 (Enterococcus faecium; Enterococcus faecium): 1 µg/mL (≈ 1.96 µM); MIC90 ([7]; Enterococcus faecium): 8 µg/mL (≈ 15.7 µM); MIC90 ([8]; Enterococcus faecium): 8 µg/mL (≈ 15.7 µM)
3 | NCC(=O)N1CCN(c2ccc(-c3ccc(N4C[C@H](Cn5ccnn5)OC4=O)cc3F)cn2)C=N1 [Compound 38] | 0.5 µg/mL (≈ 1.04 µM) | 2 µg/mL (≈ 4.17 µM) | 0.5 µg/mL (≈ 1.04 µM) | 0.5 µg/mL (≈ 1.04 µM) | 0.5 µg/mL (≈ 1.04 µM) | 0.25 µg/mL (≈ 0.521 µM) | 0.125 µg/mL (≈ 0.261 µM) | 4 µg/mL (≈ 8.34 µM) |  |  |  |  |  |  |  |  |  |  |  |  | MIC90 ([6]; Staphylococcus epidermidis): 0.5 µg/mL (≈ 1.04 µM); MIC90 (Enterococcus faecium; Enterococcus faecium): 0.25 µg/mL (≈ 0.521 µM); MIC90 ([7]; Enterococcus faecium): 4 µg/mL (≈ 8.34 µM); MIC90 ([8]; Enterococcus faecium): 4 µg/mL (≈ 8.34 µM)
4 | Cl.O=C1O[C@@H](CNc2ccon2)CN1c1ccc(-c2ccc(N3C=NNCC3)nc2)c(F)c1 [Compound 39] |  |  |  |  |  |  |  |  | 1 µg/mL | 2 µg/mL | 0.5 µg/mL | 1 µg/mL | 1 µg/mL | 0.5 µg/mL | 0.25 µg/mL | 4 µg/mL | 2 µg/mL | 0.25 µg/mL | 4 µg/mL | 4 µg/mL | 
5 | CN1CCN(c2ccc(-c3ccc(N4C[C@H](CNc5ccon5)OC4=O)cc3F)cn2)C=N1 [Compound 40] |  |  |  |  |  |  |  |  | 1 µg/mL (≈ 2.22 µM) | 2 µg/mL (≈ 4.43 µM) | 0.25 µg/mL (≈ 0.554 µM) | 0.5 µg/mL (≈ 1.11 µM) | 0.5 µg/mL (≈ 1.11 µM) | 0.5 µg/mL (≈ 1.11 µM) | 0.25 µg/mL (≈ 0.554 µM) | 2 µg/mL (≈ 4.43 µM) | 2 µg/mL (≈ 4.43 µM) | 0.125 µg/mL (≈ 0.277 µM) | 4 µg/mL (≈ 8.86 µM) | 4 µg/mL (≈ 8.86 µM) | 
6 | O=C(CO)N1CCN(c2ccc(-c3ccc(N4C[C@H](CNc5ccon5)OC4=O)cc3F)cn2)C=N1 [Compound 41] |  |  |  |  |  |  |  |  | 1 µg/mL (≈ 2.02 µM) | 2 µg/mL (≈ 4.04 µM) | 0.25 µg/mL (≈ 0.505 µM) | 0.5 µg/mL (≈ 1.01 µM) | 0.5 µg/mL (≈ 1.01 µM) | 0.5 µg/mL (≈ 1.01 µM) | 0.25 µg/mL (≈ 0.505 µM) | 2 µg/mL (≈ 4.04 µM) | 2 µg/mL (≈ 4.04 µM) | 0.125 µg/mL (≈ 0.252 µM) | 4 µg/mL (≈ 8.07 µM) | 4 µg/mL (≈ 8.07 µM) | 
7 | NCC(=O)N1CCN(c2ccc(-c3ccc(N4C[C@H](CNc5ccon5)OC4=O)cc3F)cn2)C=N1 [Compound 42] |  |  |  |  |  |  |  |  | 1 µg/mL (≈ 2.02 µM) | 2 µg/mL (≈ 4.04 µM) | 0.5 µg/mL (≈ 1.01 µM) | 0.5 µg/mL (≈ 1.01 µM) | 0.5 µg/mL (≈ 1.01 µM) | 0.5 µg/mL (≈ 1.01 µM) | 0.25 µg/mL (≈ 0.506 µM) | 2 µg/mL (≈ 4.04 µM) | 2 µg/mL (≈ 4.04 µM) | 0.125 µg/mL (≈ 0.253 µM) | 4 µg/mL (≈ 8.09 µM) | 4 µg/mL (≈ 8.09 µM) | 
8 | O=C(C(O)CO)N1CCN(c2ccc(-c3ccc(N4C[C@H](CNc5ccon5)OC4=O)cc3F)cn2)C=N1 (stereo partly drawn) [Compound 43] |  |  |  |  |  |  |  |  | 1 µg/mL (≈ 1.9 µM) | 2 µg/mL (≈ 3.81 µM) | 0.5 µg/mL (≈ 0.951 µM) | 0.5 µg/mL (≈ 0.951 µM) | 1 µg/mL (≈ 1.9 µM) | 0.5 µg/mL (≈ 0.951 µM) | 0.25 µg/mL (≈ 0.476 µM) | 2 µg/mL (≈ 3.81 µM) | 2 µg/mL (≈ 3.81 µM) | 0.25 µg/mL (≈ 0.476 µM) | 4 µg/mL (≈ 7.61 µM) | 4 µg/mL (≈ 7.61 µM) | 
9 | Cl.O=C1O[C@@H](COc2ccon2)CN1c1ccc(-c2ccc(N3C=NNCC3)nc2)c(F)c1 [Compound 44] |  |  |  |  |  |  |  |  | 4 µg/mL | >128 µg/mL | 1 µg/mL | 2 µg/mL | 1 µg/mL | 4 µg/mL | 0.5 µg/mL | 16 µg/mL | 4 µg/mL | 1 µg/mL | 16 µg/mL | 16 µg/mL | 
10 | CN1CCN(c2ccc(-c3ccc(N4C[C@H](COc5ccon5)OC4=O)cc3F)cn2)C=N1 [Compound 45] |  |  |  |  |  |  |  |  | 4 µg/mL (≈ 8.84 µM) | >128 µg/mL | 1 µg/mL (≈ 2.21 µM) | 2 µg/mL (≈ 4.42 µM) | 1 µg/mL (≈ 2.21 µM) | 2 µg/mL (≈ 4.42 µM) | 0.5 µg/mL (≈ 1.11 µM) | >128 µg/mL | 4 µg/mL (≈ 8.84 µM) | 0.5 µg/mL (≈ 1.11 µM) | >128 µg/mL | >128 µg/mL | 
